Assay results from patent US9487538B2, “Two-carbon linked artemisinin-derived trioxane dimers” (THE JOHNS HOPKINS UNIVERSITY, priority 2013, dated 2016).

Tests used:
P. berghei ANKA strain = assay: animal or person; format: in vivo; conditions: for average survival time of all mice receiving the compound: over both experiments, artemether: combination therapy groups
Method: Nearly all of the two-carbon linked dimer analogs were evaluated in Plasmodium berghei infected mice using a 60-day survival study. Each trioxane (0.64 mg) and mefloquine hydrochloride (1.92 mg) were dissolved in 100 μL of 7:3 Tween:EtOH mixture, and the mixture was further diluted with 965 μL of water (total volume of 1065 μL). Twenty-four hours after infection with P. berghei ANKA strain (2×10^7 parasitized erythrocytes), each of four 5-week old C57BL/6J mice (Jackson Laboratory, weighing approximately 20 g each) received 200 μL of the trioxane solution via oral gavage, corresponding to a dose of 6 mg/kg of trioxane and 18 mg/kg of mefloquine hydrochloride. Blood parasitemia levels and duration of animal survival as compared to survival time of animals receiving no drug were monitored, both being widely accepted measures of a drug's antimalarial efficacy.
A second mouse experiment was initiated to further evaluate several of the lead compounds. An alternative adjuvant to establish a broader understanding of the efficacy of these compounds also was evaluated. […] As summarized in Table 2, all of the lead compounds outperformed the drug artemether (4b), which prolonged survival to an average of 38.5 days and 19.0 days in combination with mefloquine and lumefantrine, respectively. One mouse receiving dimer methyl oxime Z-29 and mefloquine died early in the experiment (day 16) while the other three lived to day 60, an average of 49.0 days. Dimer methyl oxime Z-29 was, however, was marginally effective in combination with lumefantrine (26.3 day average) and not effective as a monotherapy, with an average survival time (8.3 days) similar to that of infected mice receiving no drug (8.8 days). Dimer allyl oxime 30 was efficacious in all three groups, extending survival time to 49.0 days, 41.3 days, and 46.8 days in combination with mefloquine, lumefantrine, or as a monotherapy, respectively. […] One mouse receiving mefloquine combination died at an extended time point (35 days) while the other three survived the entire 60 days, an average of 53.8 days. All four mice receiving lumefantrine combination survived the entire 60 days. […] The monotherapy dose prolonged survival time to 46.8 days, similar to that of dimer allyl oxime 30.

P388 leukemia = conditions: NCI Report, tested on 25 Oct. 1983; cited from earlier work
[1] = tested on: cell line panels consisting of 60 lines (nine disease-related subpanels); conditions: 60 cell lines; cited from earlier work
[2] = Table 1, trioxane 6 mg/kg + Mef-HCl 18 mg/kg, single oral dose
[3] = Table 1, trioxane 6 mg/kg + Mef-HCl 18 mg/kg, determined on day 3 post infection
[4] = Table 2, trioxane 6 mg/kg + lumefantrine 18 mg/kg
[5] = Table 2, trioxane 6 mg/kg + mefloquine 18 mg/kg
[6] = Table 2, trioxane 150 mg/kg, adjuvant none (monotherapy)
[7] = first experiment, trioxane 6 mg/kg + mefloquine hydrochloride 18 mg/kg, four mice

Row | Structure (SMILES) | survival after infection avg (P. berghei ANKA strain; [2]) | % parasitemia suppression (P. berghei ANKA strain; [3]) | % parasitemia suppression (P. berghei ANKA strain; [5]) | survival after infection avg (P. berghei ANKA strain; [5]) | also measured
1 | C[C@H]1[C@@H](/C(C[C@H]2O[C@@H]3O[C@@]4(C)CC[C@H]5[C@H](C)CC[C@@H]([C@H]2C)[C@@]35OO4)=N\OC(=O)N(C)C)O[C@@H]2O[C@@]3(C)CC[C@H]4[C@H](C)CC[C@@H]1[C@@]24OO3 [compound 35, dimer oxime dimethylcarbamate] | 51.8 days | >99.9% |  |  | 
2 | CO[C@H]1O[C@H](/C(C[C@H]2O[C@H](OC)[C@@]34OC(C)C3C(C)C[C@H]4[C@H]2C)=N\O)[C@H](C)[C@@H]2CC(C)C3C(C)O[C@@]312 (stereo partly drawn) [compound 28, Dimer Oxime] | 52.5 days | >99.9% |  |  | 
3 | C[C@@H]1CC[C@H]2[C@@H](C)C(=O)O[C@@H]3O[C@@]4(C)CC[C@@H]1[C@]32OO4 [artemisinin] |  |  |  |  | activity against P388 leukemia (P388 leukemia): inactive; anticancer activity [1]: modest anticancer activity
4 | CO/N=C(/C[C@H]1O[C@H](OC)[C@@]23OC(C)C2C(C)C[C@H]3[C@H]1C)[C@H]1O[C@H](OC)[C@@]23OC(C)C2C(C)C[C@H]3[C@H]1C (stereo partly drawn) [Z-29, Dimer O-Methyl Oxime] | 60.0 days | >99.9% | >99.9% | 49.0 days | inhibition in vivo at 150 mg/kg (P. berghei ANKA strain; Plasmodium berghei, in Mus musculus, po, Table 2, trioxane 150 mg/kg, adjuvant none (monotherapy), read-out: % parasitemia suppression): 98%; % parasitemia suppression (P. berghei ANKA strain; [4]): >99.9%; survival after infection avg (P. berghei ANKA strain; [4]): 26.3 days; survival after infection avg (P. berghei ANKA strain; [6]): 8.3 days; cure of mice (P. berghei ANKA strain; [7]): complete cures of all four mice
5 | C#CCO/N=C(/C[C@H]1O[C@@H]2O[C@@]3(C)CC[C@H]4[C@H](C)CC[C@@H]([C@H]1C)[C@@]24OO3)[C@H]1O[C@@H]2O[C@@]3(C)CC[C@H]4[C@H](C)CC[C@@H]([C@H]1C)[C@@]24OO3 [compound 34, dimer propargyl oxime] | 60.0 days | >99.9% | >99.9% | 53.8 days | inhibition in vivo at 6 mg/kg (P. berghei ANKA strain; Plasmodium berghei, in Mus musculus, po, Table 2, as printed: trioxane 6 mg/kg, adjuvant none, dose 18, read-out: % parasitemia suppression): > 99.9%; survival after infection avg (P. berghei ANKA strain; Table 2, as printed: trioxane 6 mg/kg, adjuvant none, dose 18): 46.8 days; % parasitemia suppression (P. berghei ANKA strain; [4]): >99.9%; survival after infection avg (P. berghei ANKA strain; [4]): 60.0 days; survival after infection (P. berghei ANKA strain; Table 2, trioxane 6 mg/kg + lumefantrine 18 mg/kg, single oral dose): 60 days; survival after infection avg (P. berghei ANKA strain; [6]): 46.8 days; cure of mice (P. berghei ANKA strain; [7]): complete cures of all four mice; average survival time of all mice receiving the compound (P. berghei ANKA strain): 55.1 days; cure of mice (P. berghei ANKA strain; two separate experiments, in combination with two different adjuvants (mefloquine and lumefantrine)): complete cure
6 | CC(=O)O/N=C(/C[C@H]1O[C@@H]2O[C@@]3(C)CC[C@H]4[C@H](C)CC[C@@H]([C@H]1C)[C@@]24OO3)[C@H]1O[C@@H]2O[C@@]3(C)CC[C@H]4[C@H](C)CC[C@@H]([C@H]1C)[C@@]24OO3 [compound 36, dimer oxime acetate] | 27.3 days | >99.9% |  |  | 
7 | C[C@H]1[C@@H](C(=O)C[C@H]2O[C@@H]3O[C@]4(C)CC[C@H]5[C@H](C)CC[C@@H]([C@H]2C)[C@@]35OO4)O[C@@H]2O[C@]3(C)CC[C@H]4[C@H](C)CC[C@@H]1[C@@]24OO3 [compound 24, Artemisinin Two-Carbon Linked Dimer Ketone] | 48.3 days | >99.9% |  |  | 
8 | CO[C@H]1O[C@@H]2O[C@@]3(C)CC[C@H]4[C@H](C)CC[C@@H]([C@H]1C)[C@@]24OO3 [artemether (4b), artemether, reference compound] | 40.0 days | >99.9% | >99.9% | 38.5 days | % parasitemia suppression (P. berghei ANKA strain; [4]): >99.9%; survival after infection avg (P. berghei ANKA strain; [4]): 19.0 days; average survival time of all mice receiving the compound (P. berghei ANKA strain): 31.7 days
9 | CO/N=C(\C[C@H]1O[C@H](OC)[C@@]23OC(C)C2C(C)C[C@H]3[C@H]1C)[C@H]1O[C@H](OC)[C@@]23OC(C)C2C(C)C[C@H]3[C@H]1C (stereo partly drawn) [E-29, Dimer O-Methyl Oxime] |  |  | >99.9% | 37.0 days | 
10 | C[C@H]1[C@@H](/C(C[C@H]2O[C@@H]3O[C@@]4(C)CC[C@H]5[C@H](C)CC[C@@H]([C@H]2C)[C@@]35OO4)=N\OC(C)(C)C)O[C@@H]2O[C@@]3(C)CC[C@H]4[C@H](C)CC[C@@H]1[C@@]24OO3 [compound 33, dimer tert-butyl oxime] |  |  | >99.9% | 23.8 days | 
11 | C[C@H]1[C@@H](/C(C[C@H]2O[C@@H]3O[C@@]4(C)CC[C@H]5[C@H](C)CC[C@@H]([C@H]2C)[C@@]35OO4)=N\OCC2CC2)O[C@@H]2O[C@@]3(C)CC[C@H]4[C@H](C)CC[C@@H]1[C@@]24OO3 [compound 31, dimer O-methylcyclopropyl oxime] |  |  | >99.9% | 41 days | 
